Laboratory results as given in patent publication US6217875A, “Inhibitors of lipoxygenase” (priority 1997, dated 2001).
pIC50: −log10 of the molar value. “Also recorded” adds a separate entry of the source. Read-outs that look alike come from different tables or passages of the source.

Experiments:
lipoxygenase = experiment: Inhibition of lipoxygenase enzyme activity (general statement); assay type: biochemical; conditions: enzyme not given
5-lipoxygenase = molecular target: T1, 5-lipoxygenase (Rattus norvegicus, UniProt P12527); experiment: Test of 5-Lipoxygenase Inhibitory Activity (rat PMNL enzyme, radiolabelled arachidonic acid, TLC); assay type: biochemical, Wistar-King rats
T1 construct: The supernatant was used as the enzyme solution of 5-lipoxygenase; from tissue; host or cells: peritoneal polymorphonuclear leukocytes (PMNL) of glycogen-injected Wistar-King rats, homogenate supernatant
T1 sequence (P12527 1-673): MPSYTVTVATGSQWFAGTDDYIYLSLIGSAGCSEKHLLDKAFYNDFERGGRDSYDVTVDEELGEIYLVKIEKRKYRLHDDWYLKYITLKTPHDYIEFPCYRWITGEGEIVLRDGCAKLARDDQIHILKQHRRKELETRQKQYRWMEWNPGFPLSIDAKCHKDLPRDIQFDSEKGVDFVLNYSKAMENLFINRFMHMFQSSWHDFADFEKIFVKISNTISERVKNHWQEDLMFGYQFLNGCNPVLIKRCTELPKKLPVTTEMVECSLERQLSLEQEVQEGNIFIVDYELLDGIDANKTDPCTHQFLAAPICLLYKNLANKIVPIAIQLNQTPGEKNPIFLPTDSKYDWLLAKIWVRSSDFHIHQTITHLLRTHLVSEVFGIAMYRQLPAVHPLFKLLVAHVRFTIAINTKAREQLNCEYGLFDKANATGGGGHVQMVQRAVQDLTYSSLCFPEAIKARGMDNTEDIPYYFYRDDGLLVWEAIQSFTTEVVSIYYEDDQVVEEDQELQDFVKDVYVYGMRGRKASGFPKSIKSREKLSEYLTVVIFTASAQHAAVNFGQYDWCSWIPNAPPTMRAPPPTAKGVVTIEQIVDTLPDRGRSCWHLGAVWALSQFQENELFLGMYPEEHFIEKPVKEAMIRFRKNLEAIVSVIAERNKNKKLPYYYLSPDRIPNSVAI
Experimental: (1) Formation of Enzyme Solution of 5-Lipoxygenase
Peritoneal polymorphonuclear leukocytes (PMNL) were prepared from normal Wistar-King rats (150-400 g) injected intraperitoneally with 5% (w/v) glycogen (20 mL/kg). A suspension in potassium phosphate buffer (50 mM, pH 7.4) was homogenized and centrifuged. The supernatant was used as the enzyme solution of 5-lipoxygenase.
(2) Measurement of Inhibitory Activity Against 5-Lipoxygenase
0.02 mL Of enzyme solution (2 mg protein/mL) and [1l-^14 C] arachidonic acid ([…]) were incubated with each testing solution (0.02 mL) and Ca^2+ and ATP at 37° C. for 5 min.
After incubation at 37° C. for 5 min, the reaction was terminated by adding 0.2 mL of 0.5 N formic acid, and the metabolite was extracted by 3 mL of ethyl acetate.
Then the extracted solution was subjected to thin-layer chromatography (TLC) and developed with ether/petroleum ether/acetic acid (50:50:1, v/v) at 4° C. The radioactive metabolites generated by 5-lipoxygenase were detected and quantified using autoradiography. The inhibitory activity on 5-lipoxygenase was measured and expressed as a percentage of the control.

[1] = test system: TPA-induced inflammation to the ears of mice; conditions: skin, 0.5 mg/ear; already reported data; cited from earlier work
[2] = test system: oxazolone-induced inflammation in the ears of mice; conditions: skin, 1.0 mg/ear; already reported data; cited from earlier work
12-lipoxygenase = experiment: Test of 12-Lipoxygenase Inhibitory Activity (rat platelet enzyme, radiolabelled arachidonic acid, TLC); assay type: biochemical, Wistar-King rats
Experimental: A test of the substances' effectiveness as inhibitors of the enzyme activity of 12-lipoxygenase was conducted for Embodiment 1 to 4.
(1) Formation of Enzyme Solution of 12-Lipoxygenase
Blood was collected from normal Wistar-King rats (150-400 g) and 0.5 mM of EDTA was added as anti-coagulant. The centrifuged supernatant (1,200 rpm for 10 min.) was again centrifuged at 3,000 rpm for 10 min. The deposited platelets were washed by 25 mM Tris/HCl buffer (pH 7.4) 1 mM EDTA /130 mM NaCl. The suspension of platelets in 1 mM EDTA was homogenized and used as an enzyme solution of 12-lipoxygenase.
(2) Measurement of Inhibitory Activity of 12-Lipoxygenase
Four to six testing solutions with different levels of concentration were prepared for Embodiment 1 to 4. 0.13 mL of enzyme solution (2 mg protein/mL) and [1-^14 C] arachidonic acid ([…]) were incubated with a testing solution (0.02 mL) at 37° C. for 5 min.
After incubation at 37° C. for 5 min., the reaction was terminated by adding 0.2 mL of 0.5 N formic acid, and the metabolite was extracted by adding 3 mL of ethyl acetate. […] The radioactive metabolites of 12 lipoxygenase were detected and quantified using autoradiography. The inhibitory activity of 12-lipoxygenase was measured and expressed as a percentage of the control.

[3] = test system: TPA-induced inflammation to the ears of mice; experiment: Regulating inflammatory reaction against TPA-induced inflammation to the ears of mice, application to the skin; assay type: in vivo, mice (ICR); conditions: for Regulating Coefficient: TPA 0.8 μg/20 μl/ear, after 4 hours
Experimental: (§1) (1) Application to the Skin
Test solutions for Embodiment 1, 3 and 4 were prepared and applied to the right ears of mice (ICR, 5 weeks old, Clair) by adding acetone solution of TPA (0.8 μg/20 μl/ear).

[4] = test system: oxazolone-induced inflammation in the ears of mice; experiment: Allergy control test against oxazolone-induced inflammation in the ears of mice, application to the skin; assay type: in vivo, mice (I.C.R)
Experimental: As described in this section, an allergy control test of oxazolone-induced inflammation to the ears of mice was conducted.
as §1
Oxazolone solution in ethanol (500 μg/100 μl) was applied to the abdominal region of mice (I.C.R, 5 weeks old, Clair), that had been shaved by hair clippers under an anesthetic of Nembutal (Immunization).
After 5 days of immunization, oxazolone solution in acetone, containing a prescribed amount of the sample being tested (Embodiment 1), was applied to the right ears of the mice (Challenge).
Also, as a comparison, data on NDGA (Comparison 7), ketoprophen (Comparison 8), phenidone (Comparison 9) and mepiramine (Comparison 10) which had already been reported, were listed in Table 3.

SMILES: O=C(/C=C/c1ccc(O)c(O)c1)O[C@H](Cc1ccc(O)c(O)c1)C(=O)O [Comparison 1, rosemarinic acid, reference compound]
- Inhibition of lipoxygenase enzyme activity (in words) (lipoxygenase): strongly inhibit lipoxygenase enzyme activity
- pIC50 (5-lipoxygenase): 5.21

SMILES: COC(=O)[C@@H](Cc1ccc(O)c(O)c1)OC(=O)/C=C/c1ccc(O)c(O)c1 [Comparison 2, rosemarinic acid methyl ester, reference compound]
- Inhibition of lipoxygenase enzyme activity (in words) (lipoxygenase): strongly inhibit lipoxygenase enzyme activity
- pIC50 (5-lipoxygenase; rat PMNL enzyme, 37° C., 5 min): 6.22

SMILES: O=C(O)/C=C/c1ccc(O)c(O)c1 [Comparison 5, caffeic acid, reference compound]
- pIC50 (5-lipoxygenase): 4.14

SMILES: CC(Cc1ccc(O)c(O)c1)C(C)Cc1ccc(O)c(O)c1 (stereo not shown) [Comparison 7, NDGA]
- Regulating Coefficient [1]: 40%
- Regulating Coefficient [2]: 38%

SMILES: CC(C(=O)O)c1cccc(C(=O)c2ccccc2)c1 (stereo not shown) [Comparison 8, ketoprophen]
- Regulating Coefficient [2]: 32%

SMILES: O=C1CCN(c2ccccc2)N1 [Comparison 9, phenidone]
- Regulating Coefficient [2]: 44%

SMILES: COc1ccc(CN(CCN(C)C)c2ccccn2)cc1 [Comparison 10, mepiramine]
- Regulating Coefficient [2]: 38%

SMILES: O=c1cc(-c2ccc(O)c(O)c2)oc2cc(O)cc(O)c12 [Embodiment 1, luteolin]
- Inhibition of lipoxygenase enzyme activity (in words) (lipoxygenase): strongly inhibit lipoxygenase enzyme activity; also recorded: outstanding inhibitory activity
- Inhibitory activity against 12-lipoxygenase (in words) (12-lipoxygenase): very strong inhibitory activity, similar to that against 5-lipoxygenase
- Inhibitory activity against 5-lipoxygenase (in words) (5-lipoxygenase; in words): significant 5-LO inhibitory activity; also recorded: stronger inhibitory activity than that of Comparison 1 (rosemarinic acid) and Comparison 2 (rosemarinic acid methyl ester)
- pIC50 (5-lipoxygenase; rat PMNL enzyme, 37° C., 5 min): 7.00
- Regulating Coefficient ([3]; 0.15 mg/ear): 85%
- Regulating Coefficient ([3]; 0.3 mg/ear): 100%
- Regulating effect against inflammation (in words) ([3]; in words): significant regulating effect against inflammation; also recorded: anti-inflammatory action, which correlated with the concentration of luteolin
- Regulating Coefficient ([4]; 0.3 mg/ear, 48 hours after challenge): 52%
- Anti-allergic action (in words) [4]: higher regulating coefficient for a smaller amount of application against Comparisons 7 to 10
- Anti-allergic action (in words) ([4]; listed as luteolin): significant anti-allergic action

SMILES: COc1cc(-c2cc(=O)c3c(O)cc(O)cc3o2)ccc1O [Embodiment 2, chrysoeriol]
- Inhibition of lipoxygenase enzyme activity (in words) (lipoxygenase): strongly inhibit lipoxygenase enzyme activity; also recorded: lesser inhibitory activity

SMILES: O=c1cc(-c2ccc(O)cc2)oc2cc(O)cc(O)c12 [apigenin]
- Inhibition of lipoxygenase enzyme activity (in words) (lipoxygenase): strongly inhibit lipoxygenase enzyme activity
